Entries after “also recorded” stand apart in the source; their conditions may differ.

From patent US10874641B2, “Methods of treating acute kidney injury” (Mitobridge, Inc., priority 2016, dated 2020) come the findings set out here.

In the assay the test system is ischemia/reperfusion induced kidney injury. As to the kind of experiment: rat model of ischemia/reperfusion induced kidney injury. It counts as in vivo. As to conditions: Sprague Dawley rats after ischemic renal injury (45 min bilateral renal pedicle occlusion), veliparib 25 mg/kg BID PO. The text has this: Acute kidney injury (AKI) is a clinical condition characterized by a rapid decline in kidney function and is often associated with high morbidity and mortality. The precise etiology of ischemia/reperfusion (I/R)-induced AKI is yet not fully understood and is thought to involve multiple factors. The prevention of acute kidney injury and its progression represents a great challenge particularly in renal transplanted patients. Therefore, animal models of renal ischemia/reperfusion (I/R) are important to understand pathophysiology and potential treatment strategies for AKI. The present study evaluated the efficacy of a test compound, namely veliparib (shown below),
[drawing 8] in a rat model of ischemia/reperfusion induced kidney injury.
Species: Rattus norvegicus
3. Experimental Plan • i. All animals were numbered and kept in acclimatization for a period of 5-7 days, with 2 days acclimatization on metabolic cages before, initiation of the experiment. • ii. Animals were randomized into different treatment groups based on their body weight and assigned a permanent number. • iii. Body weight measurements were made once at randomization, also daily just prior to compound dosing and prior to termination. All body weights were recorded. • iv. Treatment with test compound(s) varied based on dose group (see table) that follows different dosing paradigms. The time of each dose administration was recorded. • 1. The dosing schedule for groups 1 and 2 was as follows: a 5 mL/kg BID dose with vehicle starting Day −1 through Day 2 with the final dose on Day 3 occurring 2 hours prior to takedown. • 2. The dosing schedule for group 3 with veliparib was 25 mg/kg BID starting on Day −1. […] After 45 min, the clips were removed, reperfusion was monitored (change in kidney color) for 1-2 min and the surgical sites were sutured. […] Postsurgical care and recovery: Animals were monitored until recovery from anesthesia and returned to their metabolic cage. […] For the 6 hour collection, urine volume was measured and recorded (to the nearest 1.0 mL) and samples were clarified by centrifugation (3000 rpm for 10 minutes). […]

On to `C[C@]1(c2nc3c(C(N)=O)cccc3[nH]2)CCCN1` [veliparib], for which, where the note is “FIG. 2A/2B”, the “induced increases in blood urea nitrogen (BUN)” value was “attenuates” and the “induced increases in plasma creatinine levels” value was “attenuates”. Further, the “fractional excretion of sodium (a measurement of tubular injury)” value (FIG. 3) was “improves; also recorded: attenuates”.
